Measured values reported in patent US20180207228A1, “PEPTIDE COMBINATIONS AND USES THEREOF FOR TREATING GRASS ALLERGY” (ALK-Abelló A/S, priority 2015, published 2018).
Where no end group is shown, it is not given here.

How the values were obtained:
[1] = test system: allergen specific T cells; experiment: T cell proliferation assay (72 h) on donor derived T cell lines (TCL02/TCL03); format: cell-based, human; details: for Proliferation % donor coverage (TCL-02 DK1): T cell lines TCL-02 DK1, 30 donors, hit criteria SI>=2, CPM>=1000; for Proliferation strength (TCL-02 DK1): T cell lines TCL-02 DK1, strength of response (average relative magnitude); for T cell response in % of the donors tested: single peptide
Summary of the method: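 Overlapping 20-mer and selected 15-mer grass allergen peptides were screened for proliferation using TCL02 (day 24) or TCL03 (day 34) lines. Lines came from grass-allergic donors' CD8-depleted PBMCs, primed with natural allergen mix and expanded with irradiated autologous or allogeneic APCs, PHA-P 0.5 μg/ml and rIL-2.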

[2] = Peptide solubility by visual inspection; format: physicochemical; on Visual inspection after centrifugation pH 7: key: ok: clear solution; +: very small precipitation only visible with a magnifier; ++: precipitation/turbid solution; +++: more precipitation/turbid solution
Protocol: Water (pH 3-5) • 2. 250 mM D-Mannitol and 25 mM sodium acetate, pH 4.5 • 3. 250 mM D-Mannitol and 25 mM sodium phosphate, pH 7.0 • 4. […] Water (pH 3-5) • 2. 250 mM D-Mannitol and 25 mM sodium acetate, pH 4.5 • 3. 250 mM D-Mannitol and 25 mM sodium phosphate, pH 7.0 • 4. […] A subset of the peptides was selected as candidate peptides for a final peptide mixture. […] During the solubility studies the peptide-containing solutions were inspected visually before and after filtration for turbidity, and presence of particles/aggregates. In addition, presence of turbidity/particles/aggregates was also detected by optical density (OD) or absorbance of filtered material, but might also be detected by size-exclusion chromatography. Furthermore, Sub-visual particles may also be detected by dynamic light scattering (DLS) analysis on filtered and non-filtered peptide containing solutions. Samples were furthermore subjected to centrifugation to allow for the possible visual inspection of pelleted material.

[3] = 3 mg/mL, acetate salt, non-filtered, 250 mM D-Mannitol and 25 mM sodium phosphate, pH 7.0

Substance	Proliferation % donor coverage (TCL-02 DK1) [1]	Proliferation strength (TCL-02 DK1) [1]	T cell response in % of the donors tested [1]	solubility in aqueous solutions [2]	solubility, 1st round of solubility screening [2]	Visual inspection after 60 min pH 4.5 ([2]; 3 mg/mL, acetate salt, non-filtered, 250 mM D-Mannitol and 25 mM sodium acetate, pH 4.5)	Visual inspection after centrifugation pH 4.5 ([2]; 3 mg/mL, acetate salt, non-filtered, 250 mM D-Mannitol and 25 mM sodium acetate, pH 4.5, after centrifugation)	Visual inspection after 60 min pH 7 [2, 3]	Visual inspection after centrifugation pH 7 ([2]; 3 mg/mL, acetate salt, non-filtered, 250 mM D-Mannitol and 25 mM sodium phosphate, pH 7.0, after centrifugation)
VATLSEALRIIAGTLEVHAV-OH [compound 67]	43.33%	7.30	–	–	–	–	–	–	–
AYESYKFIPALEAAVKQAYA-OH [peptide 285]	–	–	~50%	surprisingly good solubility in aqueous solutions	–	–	–	–	–
TDDNEEPIAPYHFDLSGHAF-OH [peptide 204]	–	–	~40%	surprisingly good solubility in aqueous solutions	soluble	–	–	–	–
DKYRTFVATFGAASNKAFAE-OH [peptide 231]	–	–	~40%	–	soluble	–	–	–	–
WGAIWRIDTPDKLTGPFTVR-OH [peptide 211]	–	–	~40%	surprisingly good solubility in aqueous solutions	soluble	+ particles,	++	particles +	+++
STGGAYESYKFIPALEAAVK-OH [compound 71]	46.67%	8.20	~50%	surprisingly good solubility in aqueous solutions	soluble	–	–	tread +	–
PANDKFTVFEAAFNNAIKAS-OH [compound 70]	46.67%	8.10	–	–	soluble	–	–	–	–
